Measured values from the supplement of paper PMC10307832.

Key:
Assay in all cases: relative viability (nuclei count vs DMSO), 5 days (fraction); higher = more cells survive
NCI-H1666 = tested on: NCI-H1666
Outline: (§1)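 The day after seeding in 1536-well plates, lung cancer cell lines were treated by pin tool with a single drug, or with a fixed anchor-drug dose together with five library-drug doses (not always all listed) in √10 steps. After 5 days, a combined fix-and-stain solution (final 0.05% Triton X-100, 1% formaldehyde, 1 ug/ml Hoechst) was added. Nuclei counted on 4× images gave relative viability as treated counts over vehicle counts, reported as the median of duplicate plates.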

ABC-1 = tested on: ABC-1
Outline: as §1

NCI-H1355 = tested on: NCI-H1355
Outline: as §1

NCI-H727 = tested on: NCI-H727
Outline: as §1

NCI-H2170 = tested on: NCI-H2170
Outline: as §1

NCI-H460 = tested on: NCI-H460
Outline: as §1

SW 1573 = tested on: SW 1573
Outline: as §1

NCI-H520 = tested on: NCI-H520
Outline: as §1

NCI-H647 = tested on: NCI-H647
Outline: as §1

NCI-H1944 = tested on: NCI-H1944
Outline: as §1

NCI-H1755 = tested on: NCI-H1755
Outline: as §1

NCI-H1993 = tested on: NCI-H1993
Outline: as §1

NCI-H2126 = tested on: NCI-H2126
Outline: as §1

SK-LU-1 = tested on: SK-LU-1
Outline: as §1

PC-14 = tested on: PC-14
Outline: as §1

EMC-BAC-2 = tested on: EMC-BAC-2
Outline: as §1

LCLC-97TM1 = tested on: LCLC-97TM1
Outline: as §1

NCI-H1975 = tested on: NCI-H1975
Outline: as §1

NCI-H2009 = tested on: NCI-H2009
Outline: as §1

PC-3 [JPC-3] = tested on: PC-3 [JPC-3]
Outline: as §1

NCI-H1793 = tested on: NCI-H1793
Outline: as §1

NCI-H2347 = tested on: NCI-H2347
Outline: as §1

Cc1cnc(-c2cnc(NCCNc3ccc(C#N)cn3)nc2-c2ccc(Cl)cc2Cl)[nH]1 + CS(=O)(=O)CCNCc1ccc(-c2ccc3ncnc(Nc4ccc(OCc5cccc(F)c5)c(Cl)c4)c3c2)o1 [Lapatinib] (partner 2 µM)
relative viability (NCI-H1666; first compound 0.08 µM): 0.768
relative viability (NCI-H1666; first compound 0.253 µM): 0.554
relative viability (NCI-H1666; first compound 0.8 µM): 0.595
relative viability (NCI-H1666; first compound 2.53 µM): 0.62
relative viability (ABC-1; first compound 0.08 µM): 1.22
relative viability (ABC-1; first compound 0.253 µM): 0.969
relative viability (ABC-1; first compound 0.8 µM): 1.09
relative viability (ABC-1; first compound 2.53 µM): 1.11
relative viability (NCI-H1355; first compound 0.08 µM): 1.06
relative viability (NCI-H1355; first compound 0.253 µM): 0.8
relative viability (NCI-H1355; first compound 0.8 µM): 0.95
relative viability (NCI-H1355; first compound 2.53 µM): 0.909
relative viability (NCI-H727; first compound 0.08 µM): 0.822
relative viability (NCI-H727; first compound 0.253 µM): 0.882
relative viability (NCI-H727; first compound 0.8 µM): 0.765
relative viability (NCI-H727; first compound 2.53 µM): 0.782
relative viability (NCI-H2170; first compound 0.08 µM): 0.298
relative viability (NCI-H2170; first compound 0.253 µM): 0.262
relative viability (NCI-H2170; first compound 0.8 µM): 0.279
relative viability (NCI-H2170; first compound 2.53 µM): 0.32
relative viability (NCI-H460; first compound 0.08 µM): 0.943
relative viability (NCI-H460; first compound 0.253 µM): 0.826
relative viability (NCI-H460; first compound 0.8 µM): 0.864
relative viability (NCI-H460; first compound 2.53 µM): 0.775
relative viability (SW 1573; first compound 0.08 µM): 1.02
relative viability (SW 1573; first compound 0.253 µM): 1.04
relative viability (SW 1573; first compound 0.8 µM): 1.1
relative viability (SW 1573; first compound 2.53 µM): 1.02
relative viability (NCI-H520; first compound 0.08 µM): 0.962
relative viability (NCI-H520; first compound 0.253 µM): 0.823
relative viability (NCI-H520; first compound 0.8 µM): 0.93
relative viability (NCI-H520; first compound 2.53 µM): 0.891
relative viability (NCI-H647; first compound 0.08 µM): 1.19
relative viability (NCI-H647; first compound 0.253 µM): 0.838
relative viability (NCI-H647; first compound 0.8 µM): 1.02
relative viability (NCI-H647; first compound 2.53 µM): 0.936
relative viability (NCI-H1944; first compound 0.08 µM): 0.858
relative viability (NCI-H1944; first compound 0.8 µM): 0.776
relative viability (NCI-H1944; first compound 2.53 µM): 0.872
relative viability (NCI-H1755; first compound 0.08 µM): 1.04
relative viability (NCI-H1755; first compound 0.253 µM): 0.785
relative viability (NCI-H1755; first compound 0.8 µM): 1.06
relative viability (NCI-H1755; first compound 2.53 µM): 1.07
relative viability (NCI-H1993; first compound 0.08 µM): 0.957
relative viability (NCI-H1993; first compound 0.253 µM): 0.756
relative viability (NCI-H1993; first compound 0.8 µM): 0.823
relative viability (NCI-H1993; first compound 2.53 µM): 0.937
relative viability (NCI-H2126; first compound 0.08 µM): 0.753
relative viability (NCI-H2126; first compound 0.253 µM): 0.728
relative viability (NCI-H2126; first compound 0.8 µM): 0.786
relative viability (NCI-H2126; first compound 2.53 µM): 0.741
relative viability (SK-LU-1; first compound 0.08 µM): 0.87
relative viability (SK-LU-1; first compound 0.253 µM): 0.96
relative viability (SK-LU-1; first compound 0.8 µM): 0.999
relative viability (SK-LU-1; first compound 2.53 µM): 1.11
relative viability (PC-14; first compound 0.08 µM): 0.352
relative viability (PC-14; first compound 0.253 µM): 0.29
relative viability (PC-14; first compound 0.8 µM): 0.277
relative viability (PC-14; first compound 2.53 µM): 0.38
relative viability (EMC-BAC-2; first compound 0.08 µM): 1.02
relative viability (EMC-BAC-2; first compound 0.253 µM): 0.808
relative viability (EMC-BAC-2; first compound 0.8 µM): 0.887
relative viability (EMC-BAC-2; first compound 2.53 µM): 0.859
relative viability (LCLC-97TM1; first compound 0.08 µM): 1.1
relative viability (LCLC-97TM1; first compound 0.253 µM): 0.883
relative viability (LCLC-97TM1; first compound 0.8 µM): 1.07
relative viability (LCLC-97TM1; first compound 2.53 µM): 0.745
relative viability (NCI-H1975; first compound 0.08 µM): 1.01
relative viability (NCI-H1975; first compound 0.253 µM): 0.9
relative viability (NCI-H1975; first compound 0.8 µM): 0.694
relative viability (NCI-H1975; first compound 2.53 µM): 0.558
relative viability (NCI-H2009; first compound 0.08 µM): 0.991
relative viability (NCI-H2009; first compound 0.253 µM): 0.522
relative viability (NCI-H2009; first compound 0.8 µM): 0.866
relative viability (NCI-H2009; first compound 2.53 µM): 0.905
relative viability (PC-3 [JPC-3]; first compound 0.08 µM): 0.498
relative viability (PC-3 [JPC-3]; first compound 0.253 µM): 0.449
relative viability (PC-3 [JPC-3]; first compound 0.8 µM): 0.419
relative viability (PC-3 [JPC-3]; first compound 2.53 µM): 0.474
relative viability (NCI-H1793; first compound 0.08 µM): 0.608
relative viability (NCI-H1793; first compound 0.253 µM): 0.678
relative viability (NCI-H1793; first compound 0.8 µM): 0.721
relative viability (NCI-H1793; first compound 2.53 µM): 1.02
relative viability (NCI-H2347; first compound 0.08 µM): 0.862
relative viability (NCI-H2347; first compound 0.253 µM): 0.649
relative viability (NCI-H2347; first compound 0.8 µM): 1.06
relative viability (NCI-H2347; first compound 2.53 µM): 1.02
